Measured values: ChEMBL document CHEMBL4425115, “Discovery and Structure-Activity Relationship (SAR) of a Series of Ethanolamine-Based Direct-Acting Agonists of Sphingosine-1-phosphate (S1P1)” (J Med Chem, 2016)
≈ marks a conversion by molar mass, not a printed value.

Tests used:
[1] = Half life in human administered as single dose; type: ADME
[2] = in vivo; conditions: Lewis, rat, plasma, po, 30 mg/kg
[3] = Plasma concentration in Lewis rat at 10 mg/kg, po measured after 4 hrs; type: ADME, organism-based
[4] = Plasma concentration in Lewis rat at 10 mg/kg, po measured after 24 hrs; type: ADME, organism-based
[5] = Plasma concentration in Lewis rat at 3 mg/kg, po measured after 4 hrs; type: ADME, organism-based
[6] = Plasma concentration in Lewis rat at 3 mg/kg, po measured after 24 hrs; type: ADME, organism-based
[7] = Cmax in mouse plasma at 1 mg/kg, iv or 1 mg/kg, po; type: ADME, organism-based
[8] = Cmax in rat plasma at 2 mg/kg, iv or 5 mg/kg, po; type: ADME, organism-based
[9] = Cmax in cynomolgus monkey plasma at 1 mg/kg, iv or 1 mg/kg, po; type: ADME, organism-based, Macaca fascicularis
[10] = Tmax in mouse at 1 mg/kg, iv or 1 mg/kg, po; type: ADME, organism-based; conditions: in vivo
[11] = Tmax in rat at 2 mg/kg, iv or 5 mg/kg, po; type: ADME, organism-based; conditions: in vivo
[12] = Tmax in cynomolgus monkey at 1 mg/kg, iv or 1 mg/kg, po; type: ADME, organism-based, Macaca fascicularis; conditions: in vivo
[13] = AUC (0 to 24 hrs) in mouse at 1 mg/kg, iv or 1 mg/kg, po; type: ADME, organism-based; conditions: in vivo
[14] = AUC (0 to 24 hrs) in rat at 2 mg/kg, iv or 5 mg/kg, po; type: ADME, organism-based; conditions: in vivo
[15] = AUC (0 to 24 hrs) in cynomolgus monkey at 1 mg/kg, iv or 1 mg/kg, po; type: ADME, organism-based, Macaca fascicularis; conditions: in vivo
[16] = Clearance in mouse at 1 mg/kg, iv; type: ADME, organism-based; conditions: in vivo
[17] = Clearance in rat at 2 mg/kg, iv; type: ADME, organism-based; conditions: in vivo
[18] = Clearance in cynomolgus monkey at 1 mg/kg, iv; type: ADME, organism-based, Macaca fascicularis; conditions: in vivo
[19] = Volume of distribution at steady state in mouse at 1 mg/kg, iv or 1 mg/kg, po; type: ADME, organism-based; conditions: in vivo
[20] = Volume of distribution at steady state in rat at 2 mg/kg, iv or 5 mg/kg, po; type: ADME, organism-based; conditions: in vivo
[21] = Volume of distribution at steady state in cynomolgus monkey at 1 mg/kg, iv or 1 mg/kg, po; type: ADME, organism-based, Macaca fascicularis; conditions: in vivo
[22] = Half life in mouse at 1 mg/kg, iv; type: ADME, organism-based; conditions: in vivo
[23] = Half life in rat at 2 mg/kg, iv; type: ADME, organism-based; conditions: in vivo
[24] = Half life in cynomolgus monkey at 1 mg/kg, iv; type: ADME, organism-based, Macaca fascicularis; conditions: in vivo
[25] = Oral bioavailability in mouse at 1 mg/kg; type: ADME, organism-based; conditions: in vivo
[26] = Oral bioavailability in rat at 5 mg/kg; type: ADME, organism-based; conditions: in vivo
[27] = Oral bioavailability in cynomolgus monkey at 1 mg/kg; type: ADME, organism-based, Macaca fascicularis; conditions: in vivo
[28] = Cmax in dog plasma at 0.5 mg/kg, iv or 0.5 mg/kg, po; type: ADME, organism-based, Canis lupus familiaris
[29] = Tmax in dog at 0.5 mg/kg, iv or 0.5 mg/kg, po; type: ADME, organism-based, Canis lupus familiaris; conditions: in vivo
[30] = AUC (0 to 24 hrs) in dog at 0.5 mg/kg, iv or 0.5 mg/kg, po; type: ADME, organism-based, Canis lupus familiaris; conditions: in vivo
[31] = Clearance in dog at 0.5 mg/kg, iv; type: ADME, organism-based, Canis lupus familiaris; conditions: in vivo
[32] = Volume of distribution at steady state in dog at 0.5 mg/kg, iv or 0.5 mg/kg, po; type: ADME, organism-based, Canis lupus familiaris; conditions: in vivo
[33] = Half life in dog at 0.5 mg/kg, iv; type: ADME, organism-based, Canis lupus familiaris; conditions: in vivo
[34] = Oral bioavailability in dog at 0.5 mg/kg; type: ADME, organism-based, Canis lupus familiaris; conditions: in vivo
[35] = Metabolic stability in mouse liver microsomes assessed as compound remaining; type: ADME, Microsome
[36] = Metabolic stability in rat liver microsomes assessed as compound remaining; type: ADME, Microsome
[37] = Metabolic stability in cynomolgus monkey liver microsomes assessed as compound remaining; type: ADME, Macaca fascicularis, Microsome
[38] = Metabolic stability in dog liver microsomes assessed as compound remaining; type: ADME, Canis lupus familiaris, Microsome
[39] = Aqueous solubility of the compound at pH 1; type: physicochemical
[40] = Aqueous solubility of the compound at pH 6.5; type: physicochemical
[41] = Permeability of the compound at pH 7.4 by PAMPA assay; type: ADME; conditions: read-out: permeability
[42] = Dissociation constant, pKa of the compound; type: physicochemical
[43] = Lipophilicity, log D of the compound at pH 6.5; type: physicochemical; conditions: buffer
[44] = Metabolic stability in human liver microsomes assessed as compound remaining; type: ADME, Microsome
[45] = Cmax in dog plasma at 1 mg/kg, iv or 1 mg/kg, po; type: ADME, organism-based, Canis lupus familiaris
[46] = Tmax in dog at 1 mg/kg, iv or 1 mg/kg, po; type: ADME, organism-based, Canis lupus familiaris; conditions: in vivo
[47] = AUC (0 to 24 hrs) in dog at 1 mg/kg, iv or 1 mg/kg, po; type: ADME, organism-based, Canis lupus familiaris; conditions: in vivo
[48] = Clearance in dog at 1 mg/kg, iv; type: ADME, organism-based, Canis lupus familiaris; conditions: in vivo
[49] = Volume of distribution at steady state in dog at 1 mg/kg, iv or 1 mg/kg, po; type: ADME, organism-based, Canis lupus familiaris; conditions: in vivo
[50] = Half life in dog at 1 mg/kg, iv; type: ADME, organism-based, Canis lupus familiaris; conditions: in vivo
[51] = Oral bioavailability in dog at 1 mg/kg; type: ADME, organism-based, Canis lupus familiaris; conditions: in vivo

| Structure (SMILES) | Cmax [7] [nM] | Cmax [8] [nM] | Cmax [9] [nM] | Tmax [10] [h] | Tmax [11] [h] | Tmax [12] [h] | AUC(0-t) [13] [µM·h] | AUC(0-t) [14] [µM·h] | AUC(0-t) [15] [µM·h] | CL [16] [mL/min/kg] | CL [17] [mL/min/kg] | CL [18] [mL/min/kg] | Vdss [19] [L/kg] | Vdss [20] [L/kg] | Vdss [21] [L/kg] | t1/2 [22] [h] | t1/2 [23] [h] | t1/2 [24] [h] | bioavailability [25] [%] | bioavailability [26] [%] | further results |
| --- | --- | --- | --- | --- | --- | --- | --- | --- | --- | --- | --- | --- | --- | --- | --- | --- | --- | --- | --- | --- | --- |
| CCCCCCCCc1ccc(CCC(N)(CO)CO)cc1 [FINGOLIMOD] |  |  |  |  |  |  |  |  |  |  |  |  |  |  |  |  |  |  |  |  | half-life [1]: 144 to 216 h |
| CCCc1c(-c2nc(-c3ccc(C(O)CNCCC(=O)O)cc3)no2)noc1-c1ccccc1 (configuration not stated) |  |  |  |  |  |  |  |  |  |  |  |  |  |  |  |  |  |  |  |  | concentration at 4 h [2]: 142 nM |
| CCCc1c(-c2nc(-c3ccc(C(O)CN4CCC[C@H](C(=O)O)C4)cc3)no2)noc1-c1ccccc1 (some centres not stated) |  |  |  |  |  |  |  |  |  |  |  |  |  |  |  |  |  |  |  |  | concentration at 4 h [3]: 1600 nM; concentration at 24 h [4]: 38 nM |
| CCCc1c(-c2nc(-c3ccc(C(O)CN4CCC[C@H](CC(=O)O)C4)cc3)no2)noc1-c1ccccc1 (some centres not stated) |  |  |  |  |  |  |  |  |  |  |  |  |  |  |  |  |  |  |  |  | concentration at 4 h [5]: 685 nM; concentration at 24 h [6]: 40 nM |
| O=C(O)C[C@H]1CCCN(C[C@@H](O)c2ccc(-c3noc(-c4onc(-c5ccccc5)c4C(F)(F)F)n3)cc2)C1 | 44000 | 4700 | 1500 | 0.5 | 3.7 | 10 | 315 | 66 | 26 | 100 | 1000 | 500 | 0.2 | 2.2 | 1.1 | 23 | 28 | 27 | 62 | 87 | bioavailability [27]: 90%; Cmax [28]: 489000 nM; Tmax [29]: 4 h; AUC(0-t) [30]: 7.8 µM·h; CL [31]: 1300 mL/min/kg; Vdss [32]: 1.8 L/kg; t1/2 [33]: 24 h; bioavailability [34]: 90%; Stability [35]: > 98%; Stability [36]: > 98%; Stability [37]: > 98%; Stability [38]: > 98%; solubility [39]: > 850 µg/mL; solubility [40]: 229 µg/mL (≈ 422 µM); Papp [41]: 29.5 ×10⁻⁶ cm/s; pKa [42]: 8.8; logD [43]: 3.94; Stability [44]: > 98% |
| O=C(O)[C@H]1CCCN(C[C@@H](O)c2ccc(-c3noc(-c4onc(-c5ccccc5)c4C(F)(F)F)n3)cc2)C1 | 45000 | 5300 | 1100 | 1 | 3.3 | 4 | 362 | 60 | 17 | 100 | 1700 | 700 | 0.1 | 1.2 | 1.8 | 15 | 9 | 33 | 66 | 76 | Cmax [45]: 840 nM; Tmax [46]: 0.8 h; AUC(0-t) [47]: 1.3 µM·h; CL [48]: 1400 mL/min/kg; Vdss [49]: 1.4 L/kg; t1/2 [50]: 12 h; bioavailability [27]: 88%; bioavailability [51]: 74%; Stability [35]: > 98%; Stability [36]: > 98%; Stability [37]: > 98%; Stability [38]: > 98%; Stability [44]: > 98% |
